{"source": "patent US20090110671A1", "about": "“AGENT FOR ENHANCHING THE PRODUCTION OF COLLAGEN AND IT'S USE” (priority 2005, published 2009)", "key": {"NHDF cells": {"system": "NHDF cells", "assay": "Experiment 3: collagen production in NHDF cells, α,α-trehalose and saccharide derivatives with or without AA-2G", "type": "cell-based, human", "details": "relative to AA-2G = 100", "description": "Based on the confirmation that α,α-trehalose has an action of enhancing the collagen production by L-ascorbic acid, it was experimented as follows to confirm whether saccharide derivatives of α,α-trehalose have such a similar action and effect. Test solutions were prepared by dissolving in D-MEM medium any one of AA-2G, hydrous crystalline α,α-trehalose, a reagent grade specimen with a purity of at least 98%, commercialized by Hayashibara Biochemical Laboratories Inc., Okayama, Japan; “HALLODEX”, a product name of a syrup of saccharide derivatives of α,α-trehalose, having a solid content of about 75% and containing, on a dry solid basis, about 53% of α-maltosyl α,α-trehalose and about 5% of other saccharide derivatives of α,α-trehalose in total, to give final concentrations of 50 μM of AA-2G and 15.0 mg/ml of saccharides. As a control, test solutions were prepared by dissolving in D-MEM medium either of the above hydrous crystalline α,α-trehalose, α-maltosyl α,α-trehalose, or syrup of saccharide derivatives of α,α-trehalose to give a final concentration of 15.0 mg/ml. The medium admixed with the syrup containing saccharide derivatives of α,α-trehalose was adjusted to give a concentration of 15.0 mg/ml of saccharide derivatives of α,α-trehalose. The culture of NHDF cells and the quantification of collagen-production level thereof were carried out similarly as in Experiment 1. The results are in Table 3, where the values are expressed with relative values in terms of the collagen production level of NHDF cells, being regarded as 100, when cultured in D-MEM medium containing AA-2G."}, "[1]": {"system": "flabby skin or skin wrinkles/finely-wrinkles", "assay": "Experiment 6: self-evaluation of lotions with AMP and/or CoQ10 on flabby skin or skin wrinkles/finely-wrinkles, three months", "type": "in vivo, human", "details": "lotion, 3 months", "description": "Eleven women as volunteers, who had been suffering from skin wrinkles/finely-wrinkles or flabby skin, were allowed to wash their faces with any of the lotions having compositions in Table 5 three times a day for four months and then allowed to evaluate themselves about their face-skin conditions by comparing with those before use of the lotions. […] The influence of a combination use of α,α-trehalose or saccharide derivatives thereof, sodium hyaluronate and/or chondroitin sulfate, and adenosine monophosphate (may be abbreviated as “AMP”, hereinafter) and/or coenzyme Q10 (may be abbreviated as “CoQ10”, hereinafter) on the skin was examined by the following experiment. One hundred parts by weight of respective lotions were prepared by adding to fresh preparations of the same lotion with the basic composition ratio as used in Experiment 5 sodium hyaluronate, chondroitin sulfate, hydrous crystalline α,α-trehalose, a cosmetic grade specimen commercialized by Hayashibara Biochemical Laboratories Inc., Okayama, Japan, and “[…]”, a product name of a syrup having saccharide derivatives of α,α-trehalose commercialized by Hayashibara Biochemical Laboratories Inc., Okayama, Japan, AMP, and CoQ10 according to the combinations and compositions as in Table 6 below. The amounts of added saccharides are represented based on a dry solid basis. The syrup containing saccharide derivatives of α,α-trehalose was added to each lotion to give respective composition ratios as in Table 6. Any of the lotions was allowed to be used every day by 11 females who had been suffering from flabby skin or skin wrinkles/finely-wrinkles, three times a day for three months, and the results were evaluated on flabby skin or skin wrinkles/finely-wrinkles by the method similarly as in Experiment 5."}, "[2]": {"details": "saccharide one part by weight + AMP 0.1 + CoQ10 0.1"}, "[3]": {"details": "saccharide one part by weight + AMP 0.2"}, "[4]": {"details": "saccharide one part by weight + CoQ10 0.2"}, "[5]": {"details": "saccharide one part by weight + sodium hyaluronate 0.1 + chondroitin sulfate 0.1 + AMP 0.1 + CoQ10 0.1"}, "[6]": {"details": "saccharide one part by weight + sodium hyaluronate 0.1 + chondroitin sulfate 0.1 + AMP 0.2"}, "[7]": {"details": "saccharide one part by weight + sodium hyaluronate 0.1 + chondroitin sulfate 0.1 + CoQ10 0.2"}, "[8]": {"details": "saccharide one part by weight + sodium hyaluronate 0.1 + chondroitin sulfate 0.1"}, "[9]": {"details": "saccharide one part by weight alone, 3 times a day"}}}
{"smiles": "OC[C@H]1O[C@H](O[C@H]2O[C@H](CO)[C@@H](O)[C@H](O)[C@H]2O)[C@H](O)[C@@H](O)[C@@H]1O", "note": "[α,α-trehalose]", "values": [{"measurement": "Collagen-production level", "setting": "NHDF cells; saccharide 15.0 mg/ml + 50 μM AA-2G", "value": 227}, {"measurement": "Collagen-production level", "setting": "NHDF cells; saccharide 15.0 mg/ml, AA-2G not added", "value": 40}, {"measurement": "Evaluation A (remarkably efficacious)", "setting": "[1]; [2]", "value": "2 number of volunteers"}, {"measurement": "Evaluation B (efficacious)", "setting": "[1]; [2]", "value": "3 number of volunteers"}, {"measurement": "Evaluation C (slightly efficacious)", "setting": "[1]; [2]", "value": "5 number of volunteers"}, {"measurement": "Evaluation D (inefficacious)", "setting": "[1]; [2]", "value": "1 number of volunteers"}, {"measurement": "Evaluation A (remarkably efficacious)", "setting": "[1]; [3]", "value": "2 number of volunteers"}, {"measurement": "Evaluation B (efficacious)", "setting": "[1]; [3]", "value": "2 number of volunteers"}, {"measurement": "Evaluation C (slightly efficacious)", "setting": "[1]; [3]", "value": "6 number of volunteers"}, {"measurement": "Evaluation D (inefficacious)", "setting": "[1]; [3]", "value": "1 number of volunteers"}, {"measurement": "Evaluation A (remarkably efficacious)", "setting": "[1]; [4]", "value": "1 number of volunteers"}, {"measurement": "Evaluation B (efficacious)", "setting": "[1]; [4]", "value": "3 number of volunteers"}, {"measurement": "Evaluation C (slightly efficacious)", "setting": "[1]; [4]", "value": "6 number of volunteers"}, {"measurement": "Evaluation D (inefficacious)", "setting": "[1]; [4]", "value": "1 number of volunteers"}, {"measurement": "Evaluation A (remarkably efficacious)", "setting": "[1]; [5]", "value": "5 number of volunteers"}, {"measurement": "Evaluation B (efficacious)", "setting": "[1]; [5]", "value": "5 number of volunteers"}, {"measurement": "Evaluation C (slightly efficacious)", "setting": "[1]; [5]", "value": "1 number of volunteers"}, {"measurement": "Evaluation D (inefficacious)", "setting": "[1]; [5]", "value": "0 number of volunteers"}, {"measurement": "Evaluation A (remarkably efficacious)", "setting": "[1]; [6]", "value": "3 number of volunteers"}, {"measurement": "Evaluation B (efficacious)", "setting": "[1]; [6]", "value": "4 number of volunteers"}, {"measurement": "Evaluation C (slightly efficacious)", "setting": "[1]; [6]", "value": "4 number of volunteers"}, {"measurement": "Evaluation D (inefficacious)", "setting": "[1]; [6]", "value": "0 number of volunteers"}, {"measurement": "Evaluation A (remarkably efficacious)", "setting": "[1]; [7]", "value": "4 number of volunteers"}, {"measurement": "Evaluation B (efficacious)", "setting": "[1]; [7]", "value": "3 number of volunteers"}, {"measurement": "Evaluation C (slightly efficacious)", "setting": "[1]; [7]", "value": "4 number of volunteers"}, {"measurement": "Evaluation D (inefficacious)", "setting": "[1]; [7]", "value": "0 number of volunteers"}, {"measurement": "Evaluation A (remarkably efficacious)", "setting": "[1]; [8]", "value": "2 number of volunteers"}, {"measurement": "Evaluation B (efficacious)", "setting": "[1]; [8]", "value": "4 number of volunteers"}, {"measurement": "Evaluation C (slightly efficacious)", "setting": "[1]; [8]", "value": "4 number of volunteers"}, {"measurement": "Evaluation D (inefficacious)", "setting": "[1]; [8]", "value": "1 number of volunteers"}, {"measurement": "Evaluation A (remarkably efficacious)", "setting": "[1]; [9]", "value": "1 number of volunteers"}, {"measurement": "Evaluation B (efficacious)", "setting": "[1]; [9]", "value": "2 number of volunteers"}, {"measurement": "Evaluation C (slightly efficacious)", "setting": "[1]; [9]", "value": "6 number of volunteers"}, {"measurement": "Evaluation D (inefficacious)", "setting": "[1]; [9]", "value": "2 number of volunteers"}]}
